Reference: EP0195841A1, “Quinolinecarboxylic acid derivatives and process for their preparation” (KYORIN PHARMACEUTICAL CO., LTD., priority 1985, dated 1986)
In brackets after ≈: the same amount, converted by molar mass. Where two headings read alike, the source gives them in different places.

Experiments:
Assay in all cases: Antibacterial spectra, MIC by standard method of Japan Society of Chemotherapy
Assay type in all cases: cell-based
[1] = test system: Serratia marcescens IID 618; settings: 10^6 cells/ml; for MIC: IID618, Gram −, read-out: Minimum Inhibitory Concentration
[2] = test system: Streptococcus pyogenes IID 692; settings: 10^6 cells/ml; for ratio of activity per that of Ciprofloxacin (bracketed number): Gram +; for MIC: IID692, Gram +, read-out: Minimum Inhibitory Concentration
S. pneumoniae 2054 = settings: Gram +, 10^6 cells/ml
[3] = test system: Proteus vulgaris IFO 3167
E. coli NIHJ JC-2 = settings: E. coli NIHJ JC-2, Gram −, 10^6 cells/ml
[4] = test system: Yersinia enterocolitica IID 981; settings: 10^6 cells/ml; for ratio of activity per that of Ciprofloxacin (bracketed number): Gram −; for MIC: IID981, Gram −, read-out: Minimum Inhibitory Concentration
[5] = test system: S. aureus IID 670 (Terajima); settings: 10^6 cells/ml; for MIC: Staphylococcus aureus, IID670, Gram +, read-out: Minimum Inhibitory Concentration
[6] = test system: Salmonella enteritidis IID 604; settings: Gram −, 10^6 cells/ml; for MIC: Salmonella enterica, read-out: Minimum Inhibitory Concentration
S. faecalis IID 682 = settings: 10^6 cells/ml; for MIC: Enterococcus faecalis, IID682, Gram +, read-out: Minimum Inhibitory Concentration; for ratio of activity per that of Ciprofloxacin (bracketed number): Gram +
[7] = test system: Pseudomonas aeruginosa V-1; settings: 10^6 cells/ml; for ratio of activity per that of Ciprofloxacin (bracketed number): Gram −; for MIC: V1, Gram −, read-out: Minimum Inhibitory Concentration
S. epidermidis IID 866 = settings: 10^6 cells/ml; for ratio of activity per that of Ciprofloxacin (bracketed number): Gram +; for MIC: Staphylococcus epidermidis, IID866, Gram +, read-out: Minimum Inhibitory Concentration
P. morganii IID 602 = settings: 10^6 cells/ml; for ratio of activity per that of Ciprofloxacin (bracketed number): Gram −; for MIC: Morganella morganii, IID602, Gram −, read-out: Minimum Inhibitory Concentration
[8] = test system: Enterobacter cloacae IID 977; settings: 10^6 cells/ml; for ratio of activity per that of Ciprofloxacin (bracketed number): Gram −; for MIC: IID977, Gram −, read-out: Minimum Inhibitory Concentration
[9] = test system: Bacteroides fragilis 25285; settings: Gram −, 10^6 cells/ml; for MIC: read-out: Minimum Inhibitory Concentration
E. coli ATCC 10536 = settings: 10^6 cells/ml; for MIC: Escherichia coli, ATCC10536, Gram −, read-out: Minimum Inhibitory Concentration; for ratio of activity per that of Ciprofloxacin (bracketed number): Gram −
Shigella sonnei IID 969 = settings: 10^6 cells/ml; for ratio of activity per that of Ciprofloxacin (bracketed number): Gram −
Procedure: Experiment 1. Antibacterial spectra
Antibacterial activity was determined with the standard method recommended by Japan Society of Chemotherapy.

[10] = test system: Bacteroides fragilis 0558; settings: Gram −, 10^6 cells/ml; for MIC: read-out: Minimum Inhibitory Concentration
[11] = test system: Pseudomonas aeruginosa IFO 12689; settings: 10^6 cells/ml; for ratio of activity per that of Ciprofloxacin (bracketed number): Gram −; for MIC: IFO12689, Gram −, read-out: Minimum Inhibitory Concentration
P. mirabilis IID 994 = settings: 10^6 cells/ml; for ratio of activity per that of Ciprofloxacin (bracketed number): Gram −; for MIC: Proteus mirabilis, IID994, Gram −, read-out: Minimum Inhibitory Concentration
[12] = test system: Bacillus subtilis PCI 219; settings: 10^6 cells/ml; for ratio of activity per that of Ciprofloxacin (bracketed number): Gram +; for MIC: PCI219, Gram +, read-out: Minimum Inhibitory Concentration
[13] = test system: Acinetobacter anitratus IID 876; settings: 10^6 cells/ml; for MIC: Acinetobacter calcoaceticus, IID876, Gram −, read-out: Minimum Inhibitory Concentration
[14] = test system: Staphylococcus aureus 209 P; settings: Gram +, 10^6 cells/ml; for MIC: read-out: Minimum Inhibitory Concentration
[15] = test system: Klebsiella pneumoniae KY 6445; settings: 10^6 cells/ml; for ratio of activity per that of Ciprofloxacin (bracketed number): Gram −
[16] = test system: S. pyogenes IID 689 (S-8); settings: 10^6 cells/ml
[17] = test system: Citrobacter freundii IID 976; settings: 10^6 cells/ml; for ratio of activity per that of Ciprofloxacin (bracketed number): Gram −; for MIC: IID976, Gram −, read-out: Minimum Inhibitory Concentration
[18] = test system: Alcaligenes faecalis 0104002; settings: Gram −, 10^6 cells/ml; for MIC: read-out: Minimum Inhibitory Concentration
[19] = test system: Bacteroides fragilis GM 7000; settings: 10^6 cells/ml; for MIC: GM7000, Gram −, read-out: Minimum Inhibitory Concentration; for ratio of activity per that of Ciprofloxacin (bracketed number): Gram −
[20] = Proteus vulgaris IFO 3167, Gram −, 10^6 cells/ml

CN1CCN(c2c(F)cc3c(=O)c(C(=O)O)cn(C4CC4)c3c2Cl)CC1 [Example 27, 8-Chloro-1-cyclopropyl-6-fluoro-1,4-dihydro-7-(4-methyl-l-piperazinyl)4-oxoquinoline-3-carboxylic acid]
MIC [1]: 0.05 µg/mL (≈ 0.132 µM)
ratio of activity per that of Ciprofloxacin (bracketed number) [2]: 4
MIC [2]: 0.2 µg/mL (≈ 0.527 µM)
MIC (S. pneumoniae 2054; Streptococcus pneumoniae, read-out: Minimum Inhibitory Concentration): 0.39 µg/mL (≈ 1.03 µM)
ratio of activity per that of Ciprofloxacin (bracketed number) [3, 20]: 0.5
MIC ([3]; Proteus vulgaris, IFO3167, read-out: Minimum Inhibitory Concentration): 0.0125 µg/mL (≈ 0.0329 µM)
ratio of activity per that of Ciprofloxacin (bracketed number) (E. coli NIHJ JC-2): 1
MIC (E. coli NIHJ JC-2; Escherichia coli, NIHJJC2, read-out: Minimum Inhibitory Concentration): ≤ 6 ng/mL
ratio of activity per that of Ciprofloxacin (bracketed number) [4]: 1
MIC [4]: 0.05 µg/mL (≈ 0.132 µM)
MIC [5]: 0.1 µg/mL (≈ 0.263 µM)
ratio of activity per that of Ciprofloxacin (bracketed number) [6]: 0.5
MIC [6]: 0.05 µg/mL (≈ 0.132 µM)
MIC (S. faecalis IID 682): 0.39 µg/mL (≈ 1.03 µM)
ratio of activity per that of Ciprofloxacin (bracketed number) (S. faecalis IID 682): 2
ratio of activity per that of Ciprofloxacin (bracketed number) [7]: 1
MIC [7]: 0.2 µg/mL (≈ 0.527 µM)
ratio of activity per that of Ciprofloxacin (bracketed number) (S. epidermidis IID 866): 4
MIC (S. epidermidis IID 866): 0.1 µg/mL (≈ 0.263 µM)
ratio of activity per that of Ciprofloxacin (bracketed number) (P. morganii IID 602): 1
MIC (P. morganii IID 602): 0.05 µg/mL (≈ 0.132 µM)
ratio of activity per that of Ciprofloxacin (bracketed number) [8]: 1
MIC [8]: 0.05 µg/mL (≈ 0.132 µM)
ratio of activity per that of Ciprofloxacin (bracketed number) [9]: 32
MIC [9]: 0.1 µg/mL (≈ 0.263 µM)
MIC (E. coli ATCC 10536): 0.0125 µg/mL (≈ 0.0329 µM)
ratio of activity per that of Ciprofloxacin (bracketed number) (E. coli ATCC 10536): 1
ratio of activity per that of Ciprofloxacin (bracketed number) (Shigella sonnei IID 969): 0.5
MIC (Shigella sonnei IID 969; IID969, Gram −, read-out: Minimum Inhibitory Concentration): 0.0125 µg/mL (≈ 0.0329 µM)
ratio of activity per that of Ciprofloxacin (bracketed number) [10]: 32
MIC [10]: 0.1 µg/mL (≈ 0.263 µM)
ratio of activity per that of Ciprofloxacin (bracketed number) [11]: 0.25
MIC [11]: 1.56 µg/mL (≈ 4.11 µM)
ratio of activity per that of Ciprofloxacin (bracketed number) (P. mirabilis IID 994): 0.5
MIC (P. mirabilis IID 994): 0.025 µg/mL (≈ 0.0658 µM)
ratio of activity per that of Ciprofloxacin (bracketed number) [12]: 4
MIC [12]: 0.0125 µg/mL (≈ 0.0329 µM)
MIC [13]: 0.025 µg/mL (≈ 0.0658 µM)
ratio of activity per that of Ciprofloxacin (bracketed number) [14]: 4
MIC [14]: 0.1 µg/mL (≈ 0.263 µM)
ratio of activity per that of Ciprofloxacin (bracketed number) [15]: 0.5
MIC ([15]; KY6445, Gram −, read-out: Minimum Inhibitory Concentration): 0.025 µg/mL (≈ 0.0658 µM)
MIC ([16]; Streptococcus pyogenes, IID689, Gram +, read-out: Minimum Inhibitory Concentration): 0.2 µg/mL (≈ 0.527 µM)
ratio of activity per that of Ciprofloxacin (bracketed number) [17]: 0.25
MIC [17]: 0.025 µg/mL (≈ 0.0658 µM)
ratio of activity per that of Ciprofloxacin (bracketed number) [18]: 1
MIC [18]: 0.39 µg/mL (≈ 1.03 µM)
MIC [19]: 0.2 µg/mL (≈ 0.527 µM)
ratio of activity per that of Ciprofloxacin (bracketed number) [19]: 16

O=C(O)c1cn(C2CC2)c2c(F)c(N3CCNCC3)c(F)cc2c1=O [Reference- 1, 1-Cyclopropyl-6,8-difluoro-1,4-dihydro-4-oxo-7-(1-piperazinyl)quinoline-3-carboxylic acid, reference compound]
ratio of activity per that of Ciprofloxacin (bracketed number) ([1]; Gram −): 4
MIC [1]: 0.1 µg/mL (≈ 0.286 µM)
ratio of activity per that of Ciprofloxacin (bracketed number) [2]: 1
MIC [2]: 0.78 µg/mL (≈ 2.23 µM)
ratio of activity per that of Ciprofloxacin (bracketed number) (S. pneumoniae 2054): 2
MIC ([3]; IFO3167, Proteus vulgaris IFO 3167, Gram −, 10^6 cells/ml, read-out: Minimum Inhibitory Concentration): ≤ 0.006 µg/mL
ratio of activity per that of Ciprofloxacin (bracketed number) [3, 20]: 1
ratio of activity per that of Ciprofloxacin (bracketed number) (E. coli NIHJ JC-2): 1
ratio of activity per that of Ciprofloxacin (bracketed number) [4]: 2
MIC [4]: 0.025 µg/mL (≈ 0.0716 µM)
ratio of activity per that of Ciprofloxacin (bracketed number) ([5]; Gram +): 2
MIC [5]: 0.2 µg/mL (≈ 0.573 µM)
MIC [6]: 0.0125 µg/mL (≈ 0.0358 µM)
MIC (S. faecalis IID 682): 0.78 µg/mL (≈ 2.23 µM)
ratio of activity per that of Ciprofloxacin (bracketed number) (S. faecalis IID 682): 1
ratio of activity per that of Ciprofloxacin (bracketed number) [7]: 1
MIC [7]: 0.2 µg/mL (≈ 0.573 µM)
ratio of activity per that of Ciprofloxacin (bracketed number) (S. epidermidis IID 866): 2
MIC (S. epidermidis IID 866): 0.2 µg/mL (≈ 0.573 µM)
ratio of activity per that of Ciprofloxacin (bracketed number) (P. morganii IID 602): 2
MIC (P. morganii IID 602): 0.025 µg/mL (≈ 0.0716 µM)
ratio of activity per that of Ciprofloxacin (bracketed number) [8]: 2
MIC [8]: 0.025 µg/mL (≈ 0.0716 µM)
MIC [9]: 0.78 µg/mL (≈ 2.23 µM)
MIC (E. coli ATCC 10536): 0.0125 µg/mL (≈ 0.0358 µM)
ratio of activity per that of Ciprofloxacin (bracketed number) (E. coli ATCC 10536): 1
ratio of activity per that of Ciprofloxacin (bracketed number) (Shigella sonnei IID 969): 1
ratio of activity per that of Ciprofloxacin (bracketed number) [10]: 4
MIC [10]: 0.78 µg/mL (≈ 2.23 µM)
ratio of activity per that of Ciprofloxacin (bracketed number) [11]: 1
MIC [11]: 0.39 µg/mL (≈ 1.12 µM)
ratio of activity per that of Ciprofloxacin (bracketed number) (P. mirabilis IID 994): 2
MIC (P. mirabilis IID 994): ≤ 0.006 µg/mL
ratio of activity per that of Ciprofloxacin (bracketed number) [12]: 2
MIC [12]: 0.025 µg/mL (≈ 0.0716 µM)
MIC [13]: 0.0125 µg/mL (≈ 0.0358 µM)
ratio of activity per that of Ciprofloxacin (bracketed number) ([13]; Gram −): 2
ratio of activity per that of Ciprofloxacin (bracketed number) [14]: 2
MIC [14]: 0.2 µg/mL (≈ 0.573 µM)
ratio of activity per that of Ciprofloxacin (bracketed number) [15]: 1
ratio of activity per that of Ciprofloxacin (bracketed number) ([16]; Gram +): 1
ratio of activity per that of Ciprofloxacin (bracketed number) [17]: 0.5
MIC [17]: 0.0125 µg/mL (≈ 0.0358 µM)
ratio of activity per that of Ciprofloxacin (bracketed number) [18]: 2
MIC [18]: 0.02 µg/mL (≈ 0.0573 µM)
MIC [19]: 1.56 µg/mL (≈ 4.47 µM)
ratio of activity per that of Ciprofloxacin (bracketed number) [19]: 2
